Experimental data as given in US20100015249A1, “Antitumor agent containing 6'-amidino-2'-naphthyl 4-guanidinobenzoate or salt thereof” (priority 2005, published 2010).

Test system: TNFRI
Test: TNFRI expression by Northern blot and Western blot
Type: cell-based, human
Description: A cDNA probe for hybridization was constructed by the following method. After FUT treatment, RNA was extracted from the human pancreas cancer cell line […]-28 by using TRIZOL Reagent (Life Technologies, Inc.) 15 μg of RNA was subjected to electrophoresis on a 1% denatured formaldehyde agarose gel and transferred to a nylon membrane. RT-PCR was performed in order to construct a cDNA probe to be used for the detection of TNFRI mRNA. With this RT-PCR, primers represented by SEQ ID Nos: 5 and 6 were used. The obtained cDNA was inserted into the pCR2.1-TOPO vector. […] The obtained cDNA probe was labeled with α-^32P dCTP by using the random labeling kit (Roche) and used for hybridization. The expression of TNFRI mRNA was confirmed by Northern blot method with the above mentioned probe according to the method generally known. […] Also, TNFRI expression on the cell surface was detected by Western blot method. More specifically, the experiment was performed by the method similar to the method described in Example 2. Mouse monoclonal anti-TNFR1 (H-5; Santa Cruz Biotechnology) was used for detection.

SMILES: N=C(N)c1ccc2cc(OC(=O)c3ccc(N=C(N)N)cc3)ccc2c1 [FUT, 6-amidino-2-naphthyl p-guanidinobenzoate dimethanesulfonate]
- level of TNFRI mRNA expression (MDAPanc-28, Northern blot): increased in a FUT concentration-dependent manner
- TNFRI expression on the cell surface (MDAPanc-28, Western blot): increased TNFRI expression on the cell surface
